Holding throughout (details): stereoisomer not certain
Data set [1] can be described thus: RP, Waters ACQUITY UPLC BEH C18, 100 × 2.1 mm, 1.7 µm, 0.2 mL/min, estimated dead time 1.1 min; A: water + 0.1% formic acid, pH 3; B: methanol + 0.1% formic acid, pH 3; gradient (min/%B) 0/5 5/5 25/100 30/100 30.1/5 35/5.
Data set [2] can be described thus: RP, Waters CORTECS T3, 100 × 2.1 mm, 2.7 µm, 0.25 mL/min, estimated dead time 0.88 min; A: water + 0.1% formic acid, pH 3; B: methanol + 0.1% formic acid, pH 3; gradient (min/%B) 0/5 5/5 25/95 25.1/100 35/100 35.1/5 45/5.
Data set [3] can be described thus: RP, Waters ACQUITY UPLC BEH C18, 100 × 2.1 mm, 1.7 µm, 0.2 mL/min, estimated dead time 1.1 min; A: water + 0.025% formic acid + 20 mM ammonium acetate + 0.055% ammonium hydroxide, pH 7; B: methanol; gradient (min/%B) 0/5 5/5 25/100 30/100 30.1/5 35/5.
Data set [4] is described as follows: HILIC, Thermo Scientific Accucore HILIC, 100 × 2.1 mm, 2.6 µm, 0.5 mL/min, estimated dead time 0.44 min; A: water + 0.1% formic acid + 10 mM ammonium formate, pH 3; B: 5% water + 95% acetonitrile + 0.1% formic acid + 10 mM ammonium formate, pH 3; gradient (min/%B) 0/95 5/95 20/57 25/57 30/95 40/95.
Data set [5] is described as follows: HILIC, Merck SeQuant ZIC-HILIC, 150 × 2.1 mm, 5 µm, 0.75 mL/min, estimated dead time 0.44 min; A: water + 10 mM ammonium formate, pH 6; B: 5% water + 95% acetonitrile + 10 mM ammonium formate, pH 6; gradient (min/%B) 0/95 5/95 20/57 25/57 30/95 40/95.
The nature of data set [6]: HILIC, Merck SeQuant ZIC-HILIC, 150 × 2.1 mm, 5 µm, 0.75 mL/min, estimated dead time 0.44 min; A: water + 0.1% acetic acid + 10 mM ammonium acetate, pH 4; B: 5% water + 95% acetonitrile + 0.1% acetic acid + 10 mM ammonium acetate, pH 4; gradient (min/%B) 0/95 5/95 20/57 25/57 30/95 40/95.
A short description of data set [7]: HILIC, Waters XBridge BEH Amide, 100 × 2.1 mm, 2.5 µm, 0.5 mL/min, estimated dead time 0.44 min; A: water + 0.1% acetic acid + 10 mM ammonium acetate, pH 4; B: 5% water + 95% acetonitrile + 0.1% acetic acid + 10 mM ammonium acetate, pH 4; gradient (min/%B) 0/95 5/95 20/57 25/57 30/95 40/95.
Data set [8] can be described thus: RP, Waters CORTECS T3, 100 × 2.1 mm, 2.7 µm, 0.3 mL/min, estimated dead time 0.73 min; A: water + 0.1% formic acid, pH 3; B: methanol + 0.1% formic acid, pH 3; gradient (min/%B) 0/5 5/5 25/100 30/100 30.1/5 35/5.
The nature of data set [9]: RP, Waters CORTECS T3, 100 × 2.1 mm, 2.7 µm, 0.3 mL/min, estimated dead time 0.73 min; A: water + 0.1% formic acid, pH 3; B: methanol + 0.1% formic acid, pH 3; gradient (min/%B) 0/0 5/0 25/100 30/100 30.1/0 35/0.
Assay in data set [10]: as above
The source holds these as a separate data set.

Data set [11] in a line: RP, Waters CORTECS T3, 100 × 2.1 mm, 2.7 µm, 0.2 mL/min, estimated dead time 1.1 min; A: water + 0.1% formic acid, pH 3; B: methanol + 0.1% formic acid, pH 3; gradient (min/%B) 0/0 1/0 6/5 30/100 35/100 35.1/0 40/0.
A short description of data set [12]: RP, Waters CORTECS T3, 100 × 2.1 mm, 2.7 µm, 0.1 mL/min, estimated dead time 2.2 min; A: water + 0.1% formic acid, pH 3; B: methanol + 0.1% formic acid, pH 3; gradient (min/%B) 0/0 1/0 6/5 30/100 35/100 35.1/0 40/0.
The nature of data set [13]: RP, Waters CORTECS T3, 100 × 2.1 mm, 2.7 µm, 0.2 mL/min, estimated dead time 1.1 min; A: water + 0.1% formic acid, pH 3; B: methanol + 0.1% formic acid, pH 3; gradient (min/%B) 0/0 1/0 6/5 30/100 35/100 35.1/0 40/0. The source holds these as a separate data set.
Data set [14] is described as follows: RP, Waters CORTECS T3, 100 × 2.1 mm, 2.7 µm, 0.15 mL/min, estimated dead time 1.5 min; A: water + 0.1% formic acid, pH 3; B: methanol + 0.1% formic acid, pH 3; gradient (min/%B) 0/0 1/0 6/5 30/100 35/100 35.1/0 40/0.
Data set [15] can be described thus: RP, Waters CORTECS T3, 100 × 2.1 mm, 2.7 µm, 0.3 mL/min, estimated dead time 0.73 min; A: water + 0.1% formic acid, pH 3; B: methanol + 0.1% formic acid, pH 3; gradient (min/%B) 0/0 1/0 6/5 30/100 35/100 35.1/0 40/0.
Assay in data set [16]: as above
This is another data set of the same source.

Data set [17] can be described thus: RP, Waters CORTECS T3, 100 × 2.1 mm, 2.7 µm, 0.25 mL/min, estimated dead time 0.88 min; A: water + 0.1% formic acid, pH 3; B: methanol + 0.1% formic acid, pH 3; gradient (min/%B) 0/0 1/0 6/5 30/100 35/100 35.1/0 40/0.
A short description of data set [18]: RP, Waters CORTECS T3, 100 × 2.1 mm, 2.7 µm, 0.1 mL/min, estimated dead time 2.2 min; A: water + 0.1% formic acid, pH 3; B: methanol + 0.1% formic acid, pH 3; gradient (min/%B) 0/5 5/5 25/95 25.1/100 35/100 35.1/5 45/5.
Data set [19] can be described thus: RP, Waters CORTECS T3, 100 × 2.1 mm, 2.7 µm, 0.2 mL/min, estimated dead time 1.1 min; A: water + 0.1% formic acid, pH 3; B: methanol + 0.1% formic acid, pH 3; gradient (min/%B) 0/5 5/5 25/95 25.1/100 35/100 35.1/5 45/5.
Data set [20] is described as follows: RP, Waters CORTECS T3, 100 × 2.1 mm, 2.7 µm, 0.3 mL/min, estimated dead time 0.73 min; A: water + 0.1% formic acid, pH 3; B: methanol + 0.1% formic acid, pH 3; gradient (min/%B) 0/5 5/5 25/95 25.1/100 35/100 35.1/5 45/5.
Data set [21] is described as follows: RP, Waters CORTECS T3, 100 × 2.1 mm, 2.7 µm, 0.15 mL/min, estimated dead time 1.5 min; A: water + 0.1% formic acid, pH 3; B: methanol + 0.1% formic acid, pH 3; gradient (min/%B) 0/5 5/5 25/95 25.1/100 35/100 35.1/5 45/5.
A short description of data set [22]: RP, Waters ACQUITY UPLC BEH C18, 100 × 2.1 mm, 1.7 µm, 0.1 mL/min, estimated dead time 2.2 min; A: water + 0.1% formic acid, pH 3; B: methanol + 0.1% formic acid, pH 3; gradient (min/%B) 0/5 5/5 25/100 30/100 30.1/5 35/5.
The nature of data set [23]: RP, Waters ACQUITY UPLC BEH C18, 100 × 2.1 mm, 1.7 µm, 0.1 mL/min, estimated dead time 2.2 min; A: water + 0.1% formic acid, pH 3; B: methanol + 0.1% formic acid, pH 3; gradient (min/%B) 0/5 5/5 25/95 25.1/100 35/100 35.1/5 45/5.
Assay in data set [24]: as above
This is another data set of the same source.

Assay in data set [25]: as above
The source holds these as a separate data set.

A short description of data set [26]: RP, Waters ACQUITY UPLC BEH C18, 100 × 2.1 mm, 1.7 µm, 0.1 mL/min, estimated dead time 2.2 min; A: water + 0.045% formic acid + 0.11% ammonium hydroxide, pH 7; B: methanol; gradient (min/%B) 0/5 5/5 25/95 25.1/100 35/100 35.1/5 45/5.
Data set [27] in a line: RP, Thermo Scientific Hypercarb, 150 × 2.1 mm, 5 µm, 0.1 mL/min, estimated dead time 3.3 min; A: water + 0.1% formic acid, pH 3; B: methanol + 0.1% formic acid, pH 3; gradient (min/%B) 0/5 5/5 20/100 35/100 35.1/5 45/5.
A short description of data set [28]: RP, Waters ACQUITY UPLC BEH C18, 100 × 2.1 mm, 1.7 µm, 0.2 mL/min, estimated dead time 1.1 min; A: water + 0.025% formic acid + 20 mM ammonium acetate + 0.055% ammonium hydroxide, pH 7; B: methanol; gradient (min/%B) 0/5 5/5 25/100 30/100 30.1/5 35/5. This is another data set of the same source.

Structures are written as SMILES.

Turning to `CC(CCC(=O)NCC(=O)O)C1CCC2C3C(O)CC4CC(O)CCC4(C)C3CC(O)C12C` (stereo not drawn) [GLYCOCHOLATE], the LC retention time is 21.8 min in data set [1], 21.7 min in data set [2], 19.5 min in data set [3] and 9.61 min in data set [4].

In the case of `CCCCCCCCCCCC(=O)O` [LAURIC ACID], in data set [4], the LC retention time was 9.23 min.

In the case of `CC(O)(CC(=O)O)CC(=O)O` [3-HYDROXY-3-METHYLGLUTARATE], the LC retention time was 12.8 min in data set [5], 12.2 min in [6], 12.1 min in [7] and 11.2 min in data set [4].

For `NC(C=O)C(O)C(O)C(O)COS(=O)(=O)O` [D-GLUCOSAMINE 6-SULFATE], the LC retention time in [5] is 15 min; in data set [6] it was 15.2 min; in [7], 13.1 min; in data set [4], 11.8 min.

Take `CCCCCCSCC(NC(=O)CCC(N)C(=O)O)C(=O)NCC(=O)O` (stereo not drawn) [S-HEXYL-GLUTATHIONE]: the LC retention time is 15.6 min in data set [8]; 16.2 min in [9]; 16.2 min in [10]; 19.5 min in data set [11]; 17.4 min in data set [12]; 19.5 min in [13]. Besides, the LC retention time in data set [14] was 20.8 min; in data set [15], 18.1 min; in data set [16] it was 18.1 min; in data set [17], 18.7 min; in data set [18], 20.5 min; in [19], 22.9 min. Further, the LC retention time in data set [20] is 16 min; in data set [21], 18.5 min; in data set [1], 17.5 min; in data set [2], 16.6 min; in [22], 20.6 min; in data set [23], 21.2 min. Also, the LC retention time is 21.1 min in [24], 21.2 min in [25], 19.8 min in data set [26] and 12.8 min in [3].

For the molecule `N[C@@H](Cc1cnc[nH]1)C(=O)O` [L-HISTIDINE], the LC retention time was 2.39 min in [19], 4.72 min in [27] and 14.9 min in [4].

In the case of `CC(=O)NC(CCCCN)C(=O)O` [N-ALPHA-ACETYL-L-LYSINE], the LC retention time was 0.89 min in data set [9]; 0.89 min in data set [10]; 1.34 min in data set [11]; 1.35 min in data set [13]; 1.78 min in [14]; 1.09 min in data set [17]. For the same molecule, the LC retention time in data set [19] is 2.64 min; in data set [27] it was 4.9 min; in data set [1] it was 1.34 min; in data set [22], 2.69 min; in [28], 1.37 min; in data set [5] it was 13.6 min. For the same molecule, the LC retention time is 13.4 min in data set [6], 13.2 min in data set [7] and 13 min in [4].
